The values below are quoted from earlier work in patent US8372933B2, “Hyperbranched polymers based on cyclodextrins and poly (amidoamines) for the controlled release of insoluble drugs” (L'Urederra Fundacion Para el Desarrollo Tecnologico y Social, priority 2007, dated 2013).

SMILES strings stand for the structures.

The conditions of this data set: oral.

With `Nc1nc2c(ncn2COCCO)c(=O)[nH]1` [Acyclovir], the bioavailability is on record as 15-30%.
